In article PMC10611828 (European Journal of Nuclear Medicine and Molecular Imaging, 2023):
Read-outs that look alike come from different tables or passages of the source.

Experiments:
[1] = In vivo biodistribution and clearance in PC-3 tumor-bearing mice; settings: male, NMRI-Foxn1 nu/nu, mouse, iv, total radioactivity, i.v.; for tissue uptake at 1 h: 1 h p.i.; for tissue uptake at 4 h: 4 h p.i.; for tissue uptake at 24 h: 24 h p.i.; for tissue uptake at 48 h: 48 h p.i.; for tissue uptake at 72 h: 72 h p.i.
Method: All animal experiments were approved by the Animal Welfare Committee of the Erasmus MC, and all experiments were conducted in accordance to institutional guidelines.
At 1, 4, 24, 48, and 72 h post-injection (p.i.), animals were sedated using 2.5% isoflurane in oxygen, and blood was collected via the orbital vein, after which the animals were euthanized using cervical dislocation. Subsequently, the following organs were collected; the tail, tumor, spleen, liver, pancreas, small intestine, colon, coecum, kidneys, lung, and muscle. […] The collected tumor and organs were weighed, and the radioactivity was measured in the gamma counter. The biodistribution data are expressed as percentage injected dose per gram of tissue (% ID/g). Animal numbers per group are indicated in Supplementary Table 1 and 2.
Statistical analysis was performed using Graphpad Prism version 9.0.0. Outliers were identified using the ROUT method with a Q value of 1%. IC50 curves were determined using non-linear regression.

[2] = Stability in mouse serum at 37 °C (radio-HPLC); format: in vitro ADME
Method: (§1) The ^177Lu-labeled peptides were incubated in 300-μL phosphate buffered saline (PBS; Gibco, ThermoFisher, The Netherlands) at 37 °C, and their stability was verified after 1, 4, 24, 48, and 72 h by radio-HPLC (Supplementary Fig. 2). The stability in serum was determined by incubating the radiolabeled compounds into 300 μL of mouse serum (Invitrogen, USA) or human serum (Sigma Aldrich, USA) at 37 °C (Supplementary Fig. 3, 4). At each time point post-incubation, 35 μL of the mixture was added to an Eppendorf tube, and the proteins were precipitated by adding an equal volume of acetonitrile. The tubes were centrifuged at 16,000 rpm, 4 °C for 20 min, and the stability was monitored by radio-HPLC, expressed as the RCP at the different time points.

[3] = set-up: method as in PMID 35951084; settings: cited from earlier work
[4] = Stability in human serum at 37 °C (radio-HPLC); format: in vitro ADME
Method: as §1

[5] = PC-3 tumor, read-out: % uptake PC-3 tumor
[6] = blood, read-out: % uptake blood
[7] = gastrointestinal tract, read-out: % uptake gastrointestinal tract
[8] = kidney, read-out: % uptake kidney
[9] = liver, read-out: % uptake liver
[10] = muscle, read-out: % uptake muscle
[11] = pancreas, read-out: % uptake pancreas
[12] = prostate, read-out: % uptake prostate
[13] = spleen, read-out: % uptake spleen
[14] = 1 h, read-out: intact radiolabeled ligand (RCP)
[15] = 4 h, read-out: intact radiolabeled ligand (RCP)
[16] = 24 h, read-out: intact radiolabeled ligand (RCP)
[17] = 48 h, read-out: intact radiolabeled ligand (RCP)
[18] = 72 h, read-out: intact radiolabeled ligand (RCP)

Molecule `CC(C)CC(CC(C)C)NC(=O)[C@H](Cc1cnc[nH]1)NC(=O)CNC(=O)[C@@H](NC(=O)[C@H](C)NC(=O)[C@H](Cc1c[nH]c2ccccc12)NC(=O)[C@H](CCC(N)=O)NC(=O)[C@@H](Cc1ccccc1)NC(=O)COCC(=O)Nc1ccc(CNC(=O)CN2CCN(CC(=O)O)CCN(CC(=O)O)CCN(CC(=O)O)CC2)cc1)C(C)C` [[^177Lu]Lu-NeoB, metal not drawn] has a tissue uptake at 1 h [1, 5] of 9.38 ± 0.81 %ID/g, a tissue uptake at 4 h [1, 5] of 9.98 ± 2.64 %ID/g and a tissue uptake at 24 h [1, 5] of 8.05 %ID/g. It also gave a tissue uptake at 48 h [1, 5] of 4.77 %ID/g, a tissue uptake at 72 h [1, 5] of 2.88 %ID/g and a tissue uptake at 1 h [1, 6] of 1.15 %ID/g. The tissue uptake at 4 h [1, 6] was 0.11 %ID/g, the tissue uptake at 24 h [1, 6] was 0.01 %ID/g and the tissue uptake at 48 h [1, 6] was 0.01 %ID/g. It also gave a tissue uptake at 1 h [1, 7] of 3.08 %ID/g, a tissue uptake at 4 h [1, 7] of 1.91 %ID/g and a tissue uptake at 24 h [1, 7] of 0.09 %ID/g. The tissue uptake at 48 h [1, 7] was 0.26 %ID/g, the tissue uptake at 72 h [1, 7] was 0.15 %ID/g and the tissue uptake at 1 h [1, 8] was 2.68 %ID/g. The tissue uptake at 4 h [1, 8] was 0.86 %ID/g, the tissue uptake at 24 h [1, 8] was 0.1 %ID/g and the tissue uptake at 48 h [1, 8] was 0.06 %ID/g. It also gave a tissue uptake at 72 h [1, 8] of 0.04 %ID/g, a tissue uptake at 1 h [1, 9] of 3.35 %ID/g and a tissue uptake at 4 h [1, 9] of 0.54 %ID/g. It also gave a tissue uptake at 24 h [1, 9] of 0.12 %ID/g, a tissue uptake at 48 h [1, 9] of 0.08 %ID/g and a tissue uptake at 72 h [1, 9] of 0.06 %ID/g. For the same molecule, the tissue uptake at 1 h ([1]; lung, read-out: % uptake lungs) was 0.69 %ID/g, the tissue uptake at 4 h ([1]; lung, read-out: % uptake lungs) was 0.09 %ID/g and the tissue uptake at 24 h ([1]; lung, read-out: % uptake lungs) was 0.02 %ID/g. The tissue uptake at 48 h ([1]; lung, read-out: % uptake lungs) was 0.01 %ID/g, the tissue uptake at 72 h ([1]; lung, read-out: % uptake lungs) was 0.01 %ID/g and the tissue uptake at 1 h [1, 10] was 0.13 %ID/g. For the same molecule, the tissue uptake at 4 h [1, 10] was 0.05 %ID/g, the tissue uptake at 1 h [1, 11] was 30.7 ± 4.29 %ID/g and the tissue uptake at 4 h [1, 11] was 21.4 ± 3.05 %ID/g. For the same molecule, the tissue uptake at 24 h [1, 11] was 4.14 %ID/g, the tissue uptake at 48 h [1, 11] was 0.83 %ID/g and the tissue uptake at 72 h [1, 11] was 0.35 %ID/g. It also gave a tissue uptake at 1 h [1, 12] of 0.7 %ID/g, a tissue uptake at 4 h [1, 12] of 0.08 %ID/g and a tissue uptake at 24 h [1, 12] of 0.02 %ID/g. The tissue uptake at 48 h [1, 12] was 0.01 %ID/g, the tissue uptake at 72 h [1, 12] was 0.01 %ID/g and the tissue uptake at 1 h [1, 13] was 0.43 %ID/g. For the same molecule, the tissue uptake at 4 h [1, 13] was 0.15 %ID/g, the tissue uptake at 24 h [1, 13] was 0.04 %ID/g and the tissue uptake at 48 h [1, 13] was 0.02 %ID/g. For the same molecule, the tissue uptake at 72 h [1, 13] was 0.01 %ID/g, the “intact radiolabeled ligand (RCP)” value ([2]; 0 h) was 97.1 ± 0.3% and the remaining at 1 h [2, 14] was 94.3 ± 0.7%. For the same molecule, the remaining at 4 h [2, 15] was 84.1 ± 1.1%, the remaining at 24 h [2, 16] was 27.9 ± 2.3% and the remaining at 48 h [2, 17] was 14.2 ± 1%. For the same molecule, the remaining at 72 h [2, 18] was 4.4 ± 1.2%, the tolerability ([3]; after repeated radiotracer administration) was “well tolerated” and the “hematological effects after treatment” value [3] was “no lasting hematological effects”. For the same molecule, the “intact radiolabeled ligand (RCP)” value ([4]; 0 h) was 97.1 ± 0.3%, the remaining at 1 h [4, 14] was 97.9 ± 0.2% and the remaining at 4 h [4, 15] was 97.8 ± 0.3%. For the same molecule, the remaining at 24 h [4, 16] was 89.2 ± 0.5%, the remaining at 48 h [4, 17] was 81 ± 0.7% and the remaining at 72 h [4, 18] was 75.6 ± 1.7%.
